Experimental data published in patent US11220483B2, “Tetrahydro-benzo[d]azepine derivatives as GPR120 modulators” (CALDAN THERAPEUTICS LIMITED, priority 2018, dated 2022).

Molecular target: T1, human GPR120 (Homo sapiens, UniProt Q5NUL3)
T1 construct: expressed in transfected cells; host or cells: HEK293T, transient transfection with PEI
T1 sequence (Q5NUL3 1-361): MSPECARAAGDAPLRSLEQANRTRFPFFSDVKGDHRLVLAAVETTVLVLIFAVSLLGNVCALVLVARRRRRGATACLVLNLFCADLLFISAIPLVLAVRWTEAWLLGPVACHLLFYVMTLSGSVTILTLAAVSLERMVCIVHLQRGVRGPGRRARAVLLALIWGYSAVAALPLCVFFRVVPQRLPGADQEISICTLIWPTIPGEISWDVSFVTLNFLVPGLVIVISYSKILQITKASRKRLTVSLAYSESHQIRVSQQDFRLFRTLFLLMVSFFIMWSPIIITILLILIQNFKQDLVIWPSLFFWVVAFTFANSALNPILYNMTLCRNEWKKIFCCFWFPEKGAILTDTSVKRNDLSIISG
Assay: Human GPR120-β Arrestin 2 BRET agonist assay
Type: cell-based
Details: HEK293T cells transiently co-expressing hGPR120-eYFP and β-arrestin 2-RLuc; BRET normalised to DMSO (0%) and TUG-891 (100%); read-out: hGPR120 pEC50 (converted)
Protocol: pEC50 data was obtained by the following procedure:
Human GPR120-β Arrestin 2 Bio-Luminescence Resonance Energy Transfer (BRET) Agonist Assay Procedure
HEK293T cells were cultured in growth media composed of DMEM L-glutamine media supplemented with 10% (v:v) fetal bovine serum (FBS) and 1% (v:v) 10,000 units penicillin/10 mgml^−1 streptomycin at 37° C., 5% CO2. HEK293T cells transiently co-expressing human GPR120 […] and b-arrestin 2 were generated by transfection with plasmids encoding a construct of hGPR120 […] fused at its C terminal with enhanced yellow fluorescent protein (eYFP), and another encoding β-arrestin 2 fused to Renilla luciferase (RLuc), using Polyethylenimine (PEI) as the transfection reagent.
Transfected cells were cryopreserved in batches for consistency between replicate assays. Twenty-four hours post transfection, cells were harvested with non-enzymatic cell dissociation buffer and re-suspended in DMEM medium supplemented with 10% DMSO and 10% FBS before being transferred first to −80° C. overnight and then to liquid nitrogen for long-term storage. On the day prior to the assay, cells were thawed at 37° C. and re-suspended in growth media. A 96 well white opaque bottom microtitre plate was then seeded with 40,000 cells in a volume of 100 μl growth media per well and seeded plates were then incubated overnight at 37° C., 5% CO2. On the day of the BRET experiment, cells were washed twice with BRET assay buffer (Hanks balanced salt solution (HBSS) supplemented with 10 mM HEPES (pH 7.4)), then 80 μl per well of BRET assay buffer was added before the plate was incubated for 30 minutes at 37° C., 5% CO2. Then, Renilla luciferase substrate coelenterazine h (5 μM) was added to the cells and incubated at 37° C. for 10 minutes before the addition of GPR120 agonist (TUG-891) or test compound for a further 5 minutes at 37° C.
Bio-luminescence at λ 535 nm and λ 475 nm was then measured with a Pherastar FsX instrument, and the λ 535/λ 475 ratio of bio-luminescence was then used to calculate a BRET value. hGPR120 agonist potency values (pEC50) were calculated by normalising the BRET values to the DMSO vehicle (0% control) and TUG-891 (100% control) and then fitting the normalised data to a 3-parameter concentration-response curve.

`CC(Cc1ccc2c(c1)CCN(c1cc(OC3CCC3)ccc1F)C2)C(=O)O` (racemic) [Compound 27, 3-(2-(5-cyclobutoxy-2-fluorophenyl)-1,2,3,4-tetrahydroisoquinolin-6-yl)-2-methylpropanoic acid] was tested, and the EC50 was 100 nM.

Compound `O=C(O)C1CC1c1ccc2c(c1)CCN(c1cc(OC3CCC3)ccc1F)C2` (racemic) [Compound 34, 2-(2-(5-cyclobutoxy-2-fluorophenyl)-1,2,3,4-tetrahydroisoquinolin-6-yl)cyclopropanecarboxylic Acid] has an EC50 of 158 nM.

`O=C(O)C1CC1c1ccc2c(c1)CCN(c1cc(OC3CCC3)ccc1F)C2` (single isomer, unassigned) [34 isomer 1] showed an EC50 of 158 nM.

`O=C(O)C1CC1c1ccc2c(c1)CCN(c1cc(OC3CCC3)ccc1F)C2` (single isomer, unassigned) [34 isomer 2] showed an EC50 of 79.4 nM.

`O=C(O)C1CC1c1ccc2c(c1)CCN(c1nc(OC3CCC3)ccc1F)C2` (single isomer, unassigned) [37 Isomer 1] was tested, and the EC50 was 63.1 nM.

In the case of `O=C(O)C1CC1c1ccc2c(c1)CCN(c1cccc(Oc3ccccc3)c1)C2` (single isomer, unassigned) [38 isomer 1], the EC50 is reported as 50.1 nM.

`O=C(O)C1CC1c1ccc2c(c1)CCN(c1cccc(Oc3ccccc3)c1)C2` (single isomer, unassigned) [38 isomer 2] gave an EC50 of 39.8 nM.

With `O=C(O)CCc1ccc2c(c1)CCN(c1cc(OC(F)(F)F)ccc1F)C2` [Compound 1, 3-(2-(2-Fluoro-5-(trifluoromethoxy)phenyl)-1,2,3,4-tetrahydroisoquinolin-6-yl)propanoic Acid] the EC50 was 39.8 nM.

With `CO[C@H]1C[C@H](Oc2ccc(F)c(N3CCc4cc(CCC(=O)O)ccc4C3)c2)C1` [Compound 2, 3-(2-(2-fluoro-5-((1r,3r)-3-methoxycyclobutoxy)phenyl)-1,2,3,4-tetrahydroisoquinolin-6-yl)propanoic acid] the EC50 was 158 nM.

`O=C(O)CCc1ccc2c(c1)CCN(c1cc(OC3CCC3)cc(F)c1F)C2` [Compound 3, 3-(2-(5-cyclobutoxy-2,3-difluorophenyl)-1,2,3,4-tetrahydroisoquinolin-6-yl)propanoic acid] was tested, and the EC50 was 10 nM.

Work on `O=C(O)CCc1ccc2c(c1)CCN(c1ccccc1Oc1ccccc1)C2` [Compound 4, 3-(2-(2-phenoxyphenyl)-1,2,3,4-tetrahydroisoquinolin-6-yl)propanoic acid] yielded an EC50 of 158 nM.

`O=C(O)CCc1ccc2c(c1)CCN(c1cccnc1OC1CCC1)C2` [Compound 5, 3-(2-(2-cyclobutoxypyridin-3-yl)-1,2,3,4-tetrahydroisoquinolin-6-yl)propanoic acid] gave an EC50 of 7940 nM.

In the case of `N#Cc1ccc(OC(F)(F)F)cc1N1CCc2cc(CCC(=O)O)ccc2C1` [Compound 6, 3-(2-(2-cyano-5-(trifluoromethoxy)phenyl)-1,2,3,4-tetrahydroisoquinolin-6-yl)propanoic acid], the EC50 is reported as 79.4 nM.

`O=C(O)CCc1ccc2c(c1)CCN(c1nc(OC3CCC3)ccc1F)C2` [Compound 7, 3-(2-(6-cyclobutoxy-3-fluoropyridin-2-yl)-1,2,3,4-tetrahydroisoquinolin-6-yl)propanoic acid] showed an EC50 of 15.8 nM.

`O=C(O)CCc1ccc2c(c1)CCN(c1ncc(F)c(OC3CCC3)n1)C2` [Compound 8, 3-(2-(4-cyclobutoxy-5-fluoropyrimidin-2-yl)-1,2,3,4-tetrahydroisoquinolin-6-yl)propanoic acid] was tested, and the EC50 was 63.1 nM.

`O=C(O)CCc1ccc2c(c1)CCN(c1cc(Oc3ccccc3)ccc1F)C2` [Compound 9, 3-(2-(2-fluoro-5-phenoxyphenyl)-1,2,3,4-tetrahydroisoquinolin-6-yl)propanoic acid] was tested, and the EC50 was 20 nM.

`O=C(O)CCc1ccc2c(c1)CCN(c1cccc(OC(F)(F)F)c1)C2` [Compound 10, 3-(2-(3-(Trifluoromethoxy)phenyl)-1,2,3,4-tetrahydroisoquinolin-6-yl)propanoic Acid] showed an EC50 of 158 nM.

`O=C(O)CCc1ccc2c(c1)CCN(c1cc(OC3CCC3)ccc1Cl)C2` [Compound 11, 3-(2-(2-chloro-5-cyclobutoxyphenyl)-1,2,3,4-tetrahydroisoquinolin-6-yl)propanoic acid] showed an EC50 of 50.1 nM.

`O=C(O)CCc1ccc2c(c1)CCN(c1cccc(OC3CCC3)c1)C2` [Compound 12, 3-(2-(3-cyclobutoxyphenyl)-1,2,3,4-tetrahydroisoquinolin-6-yl)propanoic acid] gave an EC50 of 158 nM.

In the case of `O=C(O)CCc1ccc2c(c1)CCN(c1cc(OC3CCC3)ccc1F)C2` [Compound 13, 3-(2-(5-cyclobutoxy-2-fluorophenyl)-1,2,3,4-tetrahydroisoquinolin-6-yl)propanoic acid], the EC50 is reported as 20 nM.

In the case of `Cc1ccc(OC2CCC2)cc1N1CCc2cc(CCC(=O)O)ccc2C1` [Compound 14, 3-(2-(5-cyclobutoxy-2-methylphenyl)-1,2,3,4-tetrahydroisoquinolin-6-yl)propanoic acid], the EC50 is reported as 50.1 nM.

`CC1(C)Cc2cc(Cl)cc(N3CCc4cc(CCC(=O)O)ccc4C3)c2O1` [Compound 15, 3-(2-(5-chloro-2,2-dimethyl-2,3-dihydrobenzofuran-7-yl)-1,2,3,4-tetrahydroisoquinolin-6-yl)propanoic acid] gave an EC50 of 631 nM.

`O=C(O)CCc1ccc2c(c1)CCN(c1cccc(C(F)(F)F)c1)C2` [Compound 16, 3-(2-(3-(trifluoromethyl)phenyl)-1,2,3,4-tetrahydroisoquinolin-6-yl)propanoic acid] was tested, and the EC50 was 501 nM.

With `N#Cc1ccc(N2CCc3cc(CCC(=O)O)ccc3C2)cc1` [Compound 17, 3-(2-(4-cyanophenyl)-1,2,3,4-tetrahydroisoquinolin-6-yl)propanoic acid] the EC50 was 7940 nM.

With `O=C(O)CCc1ccc2c(c1)CCN(c1ccnc(C3CC3)n1)C2` [Compound 18, 3-(2-(2-cyclopropylpyrimidin-4-yl)-1,2,3,4-tetrahydroisoquinolin-6-yl)propanoic acid] the EC50 was 25100 nM.

For `O=C(O)CCc1ccc2c(c1)CCN(c1cc(F)cc(OC3CCC3)c1)C2` [Compound 19, 3-(2-(3-cyclobutoxy-5-fluorophenyl)-1,2,3,4-tetrahydroisoquinolin-6-yl)propanoic acid], the EC50 was 25.1 nM.

With `O=C(O)CCc1ccc2c(c1)CCN(c1cccc(Oc3ccccc3)c1)C2` [Compound 20, 3-(2-(3-phenoxyphenyl)-1,2,3,4-tetrahydroisoquinolin-6-yl)propanoic acid] the EC50 was 25.1 nM.

With `O=C(O)CCc1ccc2c(c1)CCN(c1cccc(OC3CCC3)n1)C2` [Compound 21, 3-(2-(6-cyclobutoxypyridin-2-yl)-1,2,3,4-tetrahydroisoquinolin-6-yl)propanoic acid] the EC50 was 39.8 nM.

Compound `O=C(O)CCc1ccc2c(c1)CCN(c1cccc(OC(F)(F)F)n1)C2` [Compound 22, 3-(2-(6-(trifluoromethoxy)pyridin-2-yl)-1,2,3,4-tetrahydroisoquinolin-6-yl)propanoic acid] has an EC50 of 316 nM.

`O=C(O)CCc1ccc2c(c1)CCN(c1cccc(-c3ccccc3)c1)C2` [Compound 23, 3-(2-([1,1′-biphenyl]-3-yl)-1,2,3,4-tetrahydroisoquinolin-6-yl)propanoic acid] gave an EC50 of 398 nM.

In the case of `O=C(O)CCc1ccc2c(c1)CCN(c1cc(F)cc(-c3ccccc3)c1)C2` [Compound 24, 3-(2-(5-fluoro-[1,1′-biphenyl]-3-yl)-1,2,3,4-tetrahydroisoquinolin-6-yl)propanoic acid], the EC50 is reported as 398 nM.

`COc1cc(OC(F)(F)F)cc(N2CCc3cc(CCC(=O)O)ccc3C2)c1` [Compound 25, 3-(2-(3-methoxy-5-(trifluoromethoxy)phenyl)-1,2,3,4-tetrahydroisoquinolin-6-yl)propanoic acid] gave an EC50 of 63.1 nM.

`CC(Cc1ccc2c(c1)CCN(c1cc(OC(F)(F)F)ccc1F)C2)C(=O)O` (stereo not shown) [Compound 26, 3-(2-(2-Fluoro-5-(trifluoromethoxy)phenyl)-1,2,3,4-tetrahydroisoquinolin-6-yl)-2-methylpropanoic Acid] showed an EC50 of 79.4 nM.

Compound `CC(C)Oc1cccc(N2CCc3cc(CCC(=O)O)ccc3C2)c1` [Compound 28, 3-(2-(3-Isopropoxyphenyl)-1,2,3,4-tetrahydroisoquinolin-6-yl)propanoic Acid] has an EC50 of 501 nM.
